These molecules were tested against T1, Recombinant human HSD17B13 enzyme (Homo sapiens, UniProt Q7Z5P4) (assay: HSD17b13 NAD(P)H-Glo biochemical assay). Conditions: 50 uM estradiol, 1 mM NAD+, NAD(P)H-Glo luminescence; read-out: HSD17β13 IC50.
T1 sequence (Q7Z5P4 20-300): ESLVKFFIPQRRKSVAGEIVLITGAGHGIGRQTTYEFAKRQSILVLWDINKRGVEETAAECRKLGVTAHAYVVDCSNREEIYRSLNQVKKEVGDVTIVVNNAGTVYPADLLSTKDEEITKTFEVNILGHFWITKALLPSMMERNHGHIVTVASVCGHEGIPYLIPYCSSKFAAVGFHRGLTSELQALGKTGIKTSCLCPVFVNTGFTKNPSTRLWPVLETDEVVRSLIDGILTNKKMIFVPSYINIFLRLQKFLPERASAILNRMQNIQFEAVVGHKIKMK
Method: Example B-1: HSD17b13 NAD(P)H-Glo Biochemical Assay
Recombinant human HSD17B13 enzyme. Substrate: estradiol (Sigma β-Estradiol E8875), 100 mM in DMSO. Cofactor: NAD+ Grade I free acid (Sigma 10127965001), 20 mM in H2O. Assay buffer final concentration: 20 mM Tris pH7.4 with 0.002% Tween-20 and 0.02% BSA. Assay performed in 384 well solid bottom plate (Corning 3570). Enzymatic activity detected by NAD(P)H-Glo™ Detection System (Promega G9062).
Inhibitor compounds were serially diluted in DMSO and then further diluted in assay buffer to a 10× concentration consisting of 1% DMSO.
HSD17b13 enzyme was diluted in 1× assay buffer to the desired enzyme concentration based on the specific activity of the enzyme lot. 20 uL of diluted enzyme was added to each well along with 2.5 uL of 10× inhibitor solution. Assay plate was incubated at RT for 20 minutes, and then 2.5 uL of a 10× substrate/cofactor mix was added to each well for a final concentration of 50 uM estradiol and 1 mM NAD+. Assay plate was incubated at 37° C. for 3 hours. NAD(P)H-Glo™ Detection System reagents were prepared according to manufacturer's specifications, and 25 uL was added to each well. After incubating for 1 hour at RT, luminescence was measured.

Structure (SMILES)	IC50 [nM]
Oc1cccc(-c2ccc(-n3ncc4c(F)c(F)c(O)cc43)cc2)c1 [Compound 8, 4,5-Difluoro-1-(3′-hydroxy-[1,1′-biphenyl]-4-yl)-1H-indazol-6-ol]	100 to 1000
Oc1cc2c(cnn2-c2ccc(-c3ccc(F)cc3)cc2)cc1F [Compound 13.5, 5-Fluoro-1-(4′-fluoro-[1,1′-biphenyl]-4-yl)-1H-indazol-6-ol]	100 to 1000
CS(=O)(=O)c1ccc(-c2ccc(-n3ncc4cc(F)c(O)c(F)c43)cc2)cc1 [Compound 13.40, 5,7-Difluoro-1-(4′-(methylsulfonyl)-[1,1′-biphenyl]-4-yl)-1H-indazol-6-ol]	100 to 1000
Oc1ccc2cnn(-c3ccc(-c4ccc(O)c(Cl)c4)cc3)c2c1 [Compound 18.1, 1-(3′-Chloro-4′-hydroxy-[1,1′-biphenyl]-4-yl)-1H-indazol-6-ol]	100 to 1000
CS(=O)(=O)c1ccc(-c2ccc(-n3ncc4cc(F)c(O)cc43)cc2)cc1 [Compound 13.26, 5-Fluoro-1-(4′-(methylsulfonyl)-[1,1′-biphenyl]-4-yl)-1H-indazol-6-ol]	100 to 1000
CC1(C)CCN(c2ccc(-n3c(=O)oc4c(Br)c(F)c(O)c(F)c43)cc2)CC1 [Compound 38, 7-Bromo-3-(4-(4,4-dimethylpiperidin-1-yl)phenyl)-4,6-difluoro-5-hydroxybenzo[d]oxazol-2(3H)-one]	< 100
Oc1ccc(-c2ccc(-n3ncc4cc(Cl)c(O)cc43)cc2)cc1 [Compound 2.5, 5-Chloro-1-(4′-hydroxy-[1,1′-biphenyl]-4-yl)-1H-indazol-6-ol]	100 to 1000
CS(=O)(=O)N1CCN(c2ncc(-n3ncc4cc(F)c(O)c(F)c43)cn2)CC1 [Compound 7, 5,7-Difluoro-1-(2-(4-(methylsulfonyl)piperazin-1-yl)pyrimidin-5-yl)-1H-indazol-6-ol]	100 to 1000
CCn1c(=O)n(-c2ccc(N3CCC(C)(C)CC3)cc2)c2c(F)c(O)c(F)cc21 [Compound 12, 3-(4-(4,4-Dimethylpiperidin-1-yl)phenyl)-1-ethyl-4,6-difluoro-5-hydroxy-1H-benzo[d]imidazol-2(3H)-one]	100 to 1000
CC1(C)CCN(c2ccc(-n3[nH]c(=O)c4cc(F)c(O)c(F)c43)cc2)CC1 [Compound 36, 1-(4-(4,4-Dimethylpiperidin-1-yl)phenyl)-5,7-difluoro-6-hydroxy-1H-indazol-3(2H)-one]	100 to 1000
CC1(C)CCN(c2ccc(-n3ncc4c(C(F)(F)F)c(F)c(O)nc43)cc2)CC1 [Compound 7.4, 1-(4-(4,4-Dimethylpiperidin-1-yl)phenyl)-5-fluoro-4-(trifluoromethyl)-1H-pyrazolo[3,4-b]pyridin-6-ol]	1000 to 30000
CC1(C)CCN(c2ccc(-n3ncc4cc(F)c(O)c(F)c43)cc2)CC1 [Compound 23, 1-(4-(4,4-Dimethylpiperidin-1-yl)phenyl)-5,7-difluoro-1H-indazol-6-ol]	< 100
Oc1c(F)cc2cnn(-c3ccc(-c4cc[nH]n4)cc3)c2c1F [Compound 14.2, 1-(4-(1H-Pyrazol-3-yl)phenyl)-5,7-difluoro-1H-indazol-6-ol]	100 to 1000

Second part, the molecule after the results:

IC50 [nM]	Structure (SMILES)
100 to 1000	Oc1c(F)cc2cnn(-c3ccc(N4CCOCC4)cc3)c2c1F [Compound 23.3, 5,7-Difluoro-1-(4-morpholinophenyl)-1H-indazol-6-ol]
< 100	CCC1(CC)CCN(c2ccc(-n3ncc4cc(F)c(O)c(F)c43)cc2)CC1 [Compound 24.7, 1-(4-(4,4-Diethylpiperidin-1-yl)phenyl)-5,7-difluoro-1H-indazol-6-ol]
100 to 1000	Oc1c(F)cc2cnn(-c3ccc(N4CCC5(CC4)CNC5)cc3)c2c1F [Compound 23.28, 1-(4-(2,7-Diazaspiro[3.5]nonan-7-yl)phenyl)-5,7-difluoro-1H-indazol-6-ol]
< 100	Oc1c(F)cc2cnn(-c3ccc(N4CCC(F)(F)CC4)cc3)c2c1F [Compound 23.20, 1-(4-(4,4-Difluoropiperidin-1-yl)phenyl)-5,7-difluoro-1H-indazol-6-ol]
100 to 1000	CS(=O)(=O)N1CC2(CN(c3ccc(-n4ncc5cc(F)c(O)c(F)c54)cc3)C2)C1 [Compound 20.23, 5,7-Difluoro-1-(4-(6-(methylsulfonyl)-2,6-diazaspiro[3.3]heptan-2-yl)phenyl)-1H-indazol-6-ol]
100 to 1000	Oc1c(F)cc2nnn(-c3ccc(N4CCOC[C@H]4c4ccccc4)cc3)c2c1F [Compound 26.28, (R)-5,7-Difluoro-1-(4-(3-phenylmorpholino)phenyl)-1H-benzo[d][1,2,3]triazol-6-ol]
1000 to 30000	CS(=O)(=O)C1CN(c2ccc(-n3cnc4cc(F)c(O)c(F)c43)cc2)C1 [Compound 20.15, 5,7-Difluoro-1-(4-(3-(methylsulfonyl)azetidin-1-yl)phenyl)-1H-benzo[d]imidazol-6-ol]
< 100	CC1(C)CCN(c2cnc(-n3nnc4cc(F)c(O)c(F)c43)cn2)CC1 [Compound 26.17, 1-(5-(4,4-Dimethylpiperidin-1-yl)pyrazin-2-yl)-5,7-difluoro-1H-benzo[d][1,2,3]triazol-6-ol]
< 100	CC(C)N1CCC(c2ccc(-n3ncc4cc(F)c(O)c(F)c43)cc2)CC1 [Compound 27.8, 5,7-Difluoro-1-(4-(1-isopropylpiperidin-4-yl)phenyl)-1H-indazol-6-ol]
< 100	CC1(C)CCN(c2ccc(-n3nnc4cc(F)c(O)c(F)c43)nc2)CC1 [Compound 26.14, 1-(5-(4,4-Dimethylpiperidin-1-yl)pyridin-2-yl)-5,7-difluoro-1H-benzo[d][1,2,3]triazol-6-ol]
< 100	C[C@@H]1CN(c2ccc(-n3ncc4cc(F)c(O)c(F)c43)cc2)C[C@H](C)S1 [Compound 32.4, 1-(4-(cis-2,6-Dimethylthiomorpholino)phenyl)-5,7-difluoro-1H-indazol-6-ol]
100 to 1000	O=S1(=O)CCN(c2ccc(-n3ncc4cc(F)c(O)c(F)c43)cc2)CC1 [Compound 23.5, 4-(4-(5,7-Difluoro-6-hydroxy-1H-indazol-1-yl)phenyl)thiomorpholine 1,1-dioxide]
< 100	COCC1(C)CCN(c2ccc(-n3ncc4cc(F)c(O)c(F)c43)cc2)CC1 [Compound 20.18, 5,7-Difluoro-1-(4-(4-(methoxymethyl)-4-methylpiperidin-1-yl)phenyl)-1H-indazol-6-ol]
100 to 1000	CC1(C)CCN(c2ccc(-n3nnc4c(C(F)(F)F)c(F)c(O)cc43)cc2)CC1 [Compound 41.1, 1-(4-(4,4-Dimethylpiperidin-1-yl)phenyl)-5-fluoro-4-(trifluoromethyl)-1H-benzo[d][1,2,3]triazol-6-ol]
100 to 1000	CS(=O)(=O)N1CCN(c2ccc(-n3nnc4cc(F)c(O)c(F)c43)nc2)CC1 [Compound 26.16, 5,7-Difluoro-1-(5-(4-(methylsulfonyl)piperazin-1-yl)pyridin-2-yl)-1H-benzo[d][1,2,3]triazol-6-ol]
100 to 1000	CS(=O)(=O)C1CN(c2ccc(-n3ncc4cc(F)c(O)c(F)c43)cc2)C1 [Compound 22.1, 5,7-Difluoro-1-(4-(3-(methylsulfonyl)azetidin-1-yl)phenyl)-1H-indazol-6-ol]

Same assay, conditions: 3 h; at 10 uM compound; read-out: HSD17β13 % at 10 uM

inhibition at 10 µM [%]	Structure (SMILES)
35	Cc1c(O)c(F)cc2cnn(-c3ccc(N4CCN(S(C)(=O)=O)CC4)cc3)c12 [Compound 24.12, 5-Fluoro-7-methyl-1-(4-(4-(methylsulfonyl)piperazin-1-yl)phenyl)-1H-indazol-6-ol]
